# Data from US20130096189A1, “USE OF GLABRANIN FOR STIMULATING HAIR GROWTH” (priority 2010, published 2013).
# Tested on: Fibroblast cells from the NIH3T3D4 cell line
# Assay: In-vitro fibroblast cell growth in low serum (colourimetric cell number, Promega CellTiter), with or without potassium channel blockers
# Format: cell-based
# Conditions: for Data (absorbance at 450 nM), cell number: 5 days, mean ± SD, 8 replicates
# Description: The assay described hereinbelow looks at the effect of an active on potentiation of cell growth in a low nutrient environment, ie at the effects of the active on cell growth factors which are mitogenic, rather than on the identification of an active which itself is mitogenic.
# Glabranin (TimTec) was added in 50 μL of dimethylsulphoxide (DMSO) and vortexed to dissolve. […] of the glabranin in DMSO was added to Dulbeccos Minimum Essential Medium (DMEM) containing 2% v/v foetal calf serum (FCS) to give a 10 μg/mL glabranin solution. Serial dilutions were prepared using DMSO/DMEM/FCS as above. 1 mM minoxidil in DMSO/DMEM/FCS as above was used as a positive control. A DMSO control in DMEM containing 2% v/v FCS was also prepared.
# Fibroblast cells from the NIH3T3D4 cell line (European collection of animal cell cultures, Health Protection Agency Porton Down, England) were cultured in DMEM media in the absence of antibiotics. The cells were removed using 10 mL of 0.25% w/w trypsin and 0.038% w/v EDTA in Hank's medium for 5 minutes, 10 mL DMEM containing 10% v/v FCS was added and the cells were spun down at 1000 rpm for 2 minutes. After removing the medium the cells were washed in 10 mL of DMEM containing 10% v/v FCS and spun at 1000 rpm for 2 minutes. The cells were then resuspended in 10 mL of DMEM containing 10% v/v FCS and counted using a cell counting chamber. A suspension of cells containing 5000 cells per 100 μL (50,000 cells per mL) was prepared and 100 μL of the cell suspension was plated out into a 96 well plate. The cells were allowed to adhere overnight in an incubator at 37 degrees centigrade in an atmosphere of 5% v/v CO2 in air. After washing the wells thrice with DMEM (without FCS), 100 μL of the test solution (containing […] glabranin per mL DMSO/DMEM/FCS with or without 10 μM glibenclamide (a potassium ion channel blocker) and 0.1 mM tetraethylammonium (TEA is a potassium ion channel blocker which directly binds to the channel) was added to each of eight wells. Fresh media containing glabranin was added every day for 5 days.
# Cell numbers were determined after 5 days in test medium using a colourimetric method (Promega CellTiter Reagent from Promega). 20 μL Reagent was added to each well and the plate incubated as before for one hour.
SMILES,"Data (absorbance at 450 nM), cell number (Minoxidil 75 μM in 2% FCS/DMSO)","Data (absorbance at 450 nM), cell number (glabranin 0.01 μg/ml in 2% FCS/DMSO)","Data (absorbance at 450 nM), cell number (glabranin 0.1 μg/ml in 2% FCS/DMSO)","Data (absorbance at 450 nM), cell number (glabranin 1 μg/ml in 2% FCS/DMSO)",potassium channel opening leading to fibroblast cell growth (conclusion from table 1) (growth increase reversed by potassium channel blockers)
"Nc1cc(N2CCCCC2)nc(N)[n+]1[O-] [Minoxidil, reference compound]",0.36 ± 0.04,–,–,–,–
"CC(C)=CCc1c(O)cc(O)c2c1O[C@H](c1ccccc1)CC2=O [glabranin, (2S)-5,7-dihydroxy-8-(3-methylbut-2-enyl)-2-phenyl-2,3-dihydrochromen-4-one]",–,0.34 ± 0.02,0.34 ± 0.02,0.31 ± 0.02,potassium channel opener
